{
  "source": "patent US8003105B2",
  "about": "“Method of treating cancer by co-administration of anticancer agents” (Astellas Pharma Inc., priority 2006, dated 2011)",
  "key": {"[1]": {"test_system": "human lung carcinoma cell line Calu 6", "experiment": "Test Example 1: YM155 concomitant with docetaxel, Calu 6 xenograft in nude mice", "format": "in vivo", "details": "for Number of Complete Regressions: animals with CR / animals in group, during the experimental period to day 35; for Tumor Volume day 0: day 0 (first day of administration); for Tumor Volume day 0 / Body Weight day 35 / Tumor Volume day 35: mean ± SEM, n=8", "procedure": "The dose levels are expressed in terms of YM155, the cationic moiety of the drug substance. Docetaxel hydrate (Taxotere® INJECTION) was purchased from Sanofi-Aventis Pharma Ltd. (West Lavel, FRA) and used as docetaxel.\nYM155 was dissolved in and diluted with physiological saline in order to prepare dosing solutions (concentrations calculated using the following formulation: dose×mean body weight for each group/daily release volume). These solutions were prepared immediately before the implantation of an osmotic pump (Alzet® model 1007D Micro-Osmotic Pump, DURECT Co., CA, USA) into the test subjects. The solutions were then loaded into the pump. Docetaxel was diluted with physiological saline to prepare 2 mg/mL solutions immediately before administration.\nThe human lung carcinoma cell line Calu 6 (HTB-56, Lot No. 208280) was obtained from American Type Culture Collection (VA, USA). The cells were cultured at 37° C. in a 5% CO2 atmosphere in RPMI1640 medium supplemented with 10% heat-inactivated fetal bovine serum. The cells were collected with trypsin, suspended in PBS at 6×10^7 cells/mL, and then mixed with an equivalent volume of Matrigel® Basement Membrane Matrix (Becton Dickinson Co., Bedford, Mass., USA).\nFive-week-old male nude mice (CAnN.Cg-Foxn1nu/CrlCrlj(nu/nu)) were purchased from Charles River Laboratories Japan, Inc (Kanagawa, Japan). They were maintained on a standard diet and water throughout the experiments under specific pathogen-free conditions. The cells were cultured in vitro and 3×10^6 cells/0.1 mL/mouse were grafted subcutaneously into the flank of 6-week-old nude mice. The mice with tumor volumes (length×width^2×0.5) of 97.3 to 182.7 mm^3 were divided into groups. This was done using SAS software in order to minimize intragroup and intergroup tumor volume variation.\nThe first day of administration was designated day 0, and observation continued until day 35. Each group (n=8) was treated as follows.\n(§1) For 7-day sc continuous infusion, an osmotic pump containing either YM155 or physiological saline, was implanted in the dorsum of each animal while under anesthesia. The vehicle control group received a 7-day sc continuous infusion of physiological saline starting on day 0, and iv bolus injection of physiological saline on days 0, 4 and 8. The YM155 group received a 7-day sc continuous infusion of YM155 at 2 mg/kg/day starting on day 0, and iv bolus injection of physiological saline on days 0, 4 and 8. The docetaxel group received iv bolus injection of docetaxel at 20 mg/10 mL/kg on days 0, 4 and 8, as well as a 7-day sc continuous infusion of physiological saline starting on day 0. The combination group received both compounds instead of the vehicle, similarly to the YM155 and docetaxel groups.\nBody weight and tumor diameter were measured every 3-4 days using calipers, and tumor volume was determined by calculating the volume of an ellipsoid using the formula: length×width^2×0.5. Antitumor activities are expressed as percent inhibition of tumor growth (% inh) and percent regression of the tumor (% reg). […] The percent regression of the tumor was calculated for all groups with observed tumor regression, using the following formula: 100×{1−(mean tumor volume of each group on day 35)/(mean tumor volume of each group on day 0)}. The number of Complete Regressions (CRs) in all groups were checked during the experimental period. The CR is defined by instances in which the tumor burden falls bellow the limit of palpation.\nValues are expressed as the mean± the standard error of the mean (SEM). Tumor volume and body weight on day 35 were compared between each single compound group and combination group using the Student's t-test. P values of less than 5% are considered significant. SAS software was used for data processing."}, "[2]": {"test_system": "human lung carcinoma cell line Calu 6", "experiment": "Test Example 2A: YM155 followed by docetaxel (sequential), Calu 6 xenograft in nude mice", "format": "in vivo", "details": "for Number of CRs: animals with complete regression / animals in group; for Tumor Volume day 0 / Body Weight day 35 / Tumor Volume day 35: mean ± SEM, n=8", "procedure": "(§2) The following study was conducted in the same way as Test Example 1 except for the administration timing.\nA) The first day of administration was designated day 0, and observation continued until day 35. Each group (n=8) was treated as follows.\nFor 7-day sc continuous infusion, an osmotic pump containing either YM155 or physiological saline, was implanted in the dorsum of each animal while under anesthesia. The vehicle control group received a 7-day sc continuous infusion of physiological saline starting on day 0, and iv bolus injection of physiological saline on days 7, 11 and 15. The YM155 group received a 7-day sc continuous infusion of YM155 at 2 mg/kg/day starting on day 0 and iv bolus injection of physiological saline on days 7, 11 and 15. The docetaxel group received iv bolus injection of docetaxel at 20 mg/10 mL/kg on days 7, 11 and 15, as well as a 7-day sc continuous infusion of physiological saline starting on day 0. The combination group received both compounds instead of the vehicle, similarly to the YM155 and docetaxel groups. Results"}, "[3]": {"test_system": "human lung carcinoma cell line Calu 6", "experiment": "Test Example 2B: docetaxel followed by YM155 (sequential), Calu 6 xenograft in nude mice", "format": "in vivo", "details": "for Number of CRs: animals with complete regression / animals in group; for Tumor Volume day 0 / Body Weight day 35 / Tumor Volume day 35: mean ± SEM, n=8", "procedure": "as §2\nB) The first day of administration was designated day 0, and observation continued until day 35. Each group (n=8) was treated as follows.\nas §1, with “day 8,” for “day 0,”, “day 8.” for “day 0.”, “groups. Results” for “groups.”"}, "[4]": {"test_system": "lymphoma WSU-DLCL-2 cells", "experiment": "Test Example 6: YM155 followed by R-ICE, WSU-DLCL-2 xenograft", "format": "in vivo, nude mice", "procedure": "The study was conducted in the same way as Test Example 5 according to the following dosage regimen.\nYM155 group YM155 2 mg/kg/day (7-day sc continuous infusion)\nRICE group RTX 50 mg/kg, i.v. (day 6 and 8)+(IFM 400 mg/kg+CBDCA 30 mg/kg), i.v (day 9)+ETP 10 mg/kg, i.v (day 8, 9 and 10)\nYM155→RICE group YM155 2 mg/kg/day (7-day sc continuous infusion)+RTX 50 mg/kg, i.v. (day 6 and 8)+(IFM 400 mg/kg+CBDCA 30 mg/kg), i.v. (day 9)+ETP 10 mg/kg, i.v. (day 8, 9 and 10)\nIn the table, values are expressed as the mean±SEM (n=8, RICE group: n=6). ¶¶: P<0.01 versus an RICE group, ##: P<0.01 versus YM155 group, N.S.: no significance from RICE group (Student's t-test)."}, "[5]": {"test_system": "human NSCLC xenograft models", "details": "NSCLC xenograft model; Ref. 15; cited from earlier work"}, "[6]": {"details": "day 35, YM155 2 mg/kg/day 7-day sc infusion from day 0, docetaxel 20 mg/kg/day iv day 0, 4, 8"}, "[7]": {"details": "day 35, YM155 2 mg/kg/day 7-day sc infusion from day 0, docetaxel 20 mg/kg/day iv day 7, 11, 15"}, "[8]": {"details": "day 35, docetaxel 20 mg/kg/day iv day 0, 4, 8, YM155 2 mg/kg/day 7-day sc infusion from day 8"}},
  "data": [
    {"smiles": "COCCn1c2c([n+](Cc3cnccn3)c1C)C(=O)c1ccccc1C2=O.[Br-]", "note": "[YM155, 1-(2-methoxyethyl)-2-methyl-4,9-dioxo-3-(pyrazin-2-ylmethyl)-4,9-dihydro-1H-naphtho[2,3-d]imidazol-3-ium bromide]", "values": [
      {"measurement": "Number of Complete Regressions", "setting": "[1]", "result": "0/8"},
      {"measurement": "Tumor Volume day 0", "setting": "[1]", "result": "121.4 ± 6.9", "unit": "mm^3"},
      {"measurement": "Antitumor Activity, percent inhibition of tumor growth (% inh)", "setting": "[1]; [6]", "result": 99, "unit": "%"},
      {"measurement": "Body Weight day 35", "setting": "[1]; [6]", "result": "26.13 ± 0.56 ^ g"},
      {"measurement": "Tumor Volume day 35", "setting": "[1]; [6]", "result": "142.3 ± 16.9", "unit": "mm^3"},
      {"measurement": "Number of CRs", "setting": "[2]", "result": "0/8"},
      {"measurement": "Tumor Volume day 0", "setting": "[2]", "result": "208.5 ± 18.6", "unit": "mm^3"},
      {"measurement": "Body Weight day 35", "setting": "[2]; [7]", "result": "26.25 ± 0.25", "unit": "g"},
      {"measurement": "Tumor Volume day 35", "setting": "[2]; [7]", "result": "251.8 ± 50.7", "unit": "mm^3"},
      {"measurement": "Number of CRs", "setting": "[3]", "result": "0/8"},
      {"measurement": "Tumor Volume day 0", "setting": "[3]", "result": "206.9 ± 21.8", "unit": "mm^3"},
      {"measurement": "Body Weight day 35", "setting": "[3]; [8]", "result": "24.80 ± 1.01 ^ g"},
      {"measurement": "Tumor Volume day 35", "setting": "[3]; [8]", "result": "1437.5 ± 225.5", "unit": "mm^3"},
      {"measurement": "Number of CRs", "setting": "[4]; animals with complete regression / animals in group", "result": "0/8"},
      {"measurement": "Tumor Volume day 0", "setting": "[4]; day 0, mean ± SEM, n=8, RICE group n=6", "result": "405.1 ± 13.8", "unit": "mm^3"},
      {"measurement": "Antitumor Activity, percent inhibition of tumor growth (% inh)", "setting": "[4]; day 28, YM155 2 mg/kg/day 7-day sc infusion, RICE given day 6-10", "result": 45, "unit": "%"},
      {"measurement": "Body Weight day 28", "setting": "[4]; day 28, YM155 2 mg/kg/day 7-day sc infusion, RICE given day 6-10, mean ± SEM", "result": "28.81 ± 0.23", "unit": "g"},
      {"measurement": "Tumor Volume day 28", "setting": "[4]; day 28, YM155 2 mg/kg/day 7-day sc infusion, RICE: RTX 50 mg/kg iv day 6, 8 + IFM 400 mg/kg + CBDCA 30 mg/kg iv day 9 + ETP 10 mg/kg iv day 8-10, mean ± SEM", "result": "1181.3 ± 174.7", "unit": "mm^3"},
      {"measurement": "anti-tumor activity of 7-day continuous infusion", "setting": "[5]", "result": "induced tumor regression"}
    ]},
    {"smiles": "CC(=O)O[C@@]12CO[C@@H]1C[C@H](O)[C@@]1(C)C(=O)[C@H](O)C3=C(C)[C@@H](OC(=O)[C@H](O)[C@@H](NC(=O)OC(C)(C)C)c4ccccc4)C[C@@](O)([C@@H](OC(=O)c4ccccc4)[C@H]21)C3(C)C", "note": "[Docetaxel, Docetaxel hydrate]", "values": [
      {"measurement": "Number of Complete Regressions", "setting": "[1]", "result": "0/8"},
      {"measurement": "Tumor Volume day 0", "setting": "[1]", "result": "121.4 ± 7.0", "unit": "mm^3"},
      {"measurement": "Antitumor Activity, percent inhibition of tumor growth (% inh)", "setting": "[1]; [6]", "result": "> 100", "unit": "%"},
      {"measurement": "Antitumor Activity, percent regression of the tumor (% reg)", "setting": "[1]; [6]", "result": 52, "unit": "%"},
      {"measurement": "Body Weight day 35", "setting": "[1]; [6]", "result": "24.95 ± 0.54 ^ g"},
      {"measurement": "Tumor Volume day 35", "setting": "[1]; [6]", "result": "58.0 ± 20.4", "unit": "mm^3"},
      {"measurement": "Number of CRs", "setting": "[2]", "result": "0/8"},
      {"measurement": "Tumor Volume day 0", "setting": "[2]", "result": "209.1 ± 18.3", "unit": "mm^3"},
      {"measurement": "Antitumor Activity, percent inhibition of tumor growth (% inh)", "setting": "[2]; [7]", "result": "> 100", "unit": "%"},
      {"measurement": "Antitumor Activity, percent regression of the tumor (% reg)", "setting": "[2]; [7]", "result": 10, "unit": "%"},
      {"measurement": "Body Weight day 35", "setting": "[2]; [7]", "result": "21.03 ± 0.94", "unit": "g"},
      {"measurement": "Tumor Volume day 35", "setting": "[2]; [7]", "result": "188.8 ± 29.1", "unit": "mm^3"},
      {"measurement": "Number of CRs", "setting": "[3]", "result": "0/8"},
      {"measurement": "Tumor Volume day 0", "setting": "[3]", "result": "210.0 ± 22.6", "unit": "mm^3"},
      {"measurement": "Antitumor Activity, percent inhibition of tumor growth (% inh)", "setting": "[3]; [8]", "result": "> 100", "unit": "%"},
      {"measurement": "Antitumor Activity, percent regression of the tumor (% reg)", "setting": "[3]; [8]", "result": 68, "unit": "%"},
      {"measurement": "Body Weight day 35", "setting": "[3]; [8]", "result": "23.84 ± 1.01 ^ g"},
      {"measurement": "Tumor Volume day 35", "setting": "[3]; [8]", "result": "67.2 ± 15.1", "unit": "mm^3"}
    ]}
  ]
}
